Test results taken from patent publication US9856230B2 (University of Sunderland, priority 2012, dated 2018).
Read-outs that look alike come from different tables or passages of the source.

Experiments:
[1] = biological target: T1, Trx system (thioredoxin/thioredoxin reductase) (Homo sapiens, UniProt Q16881); experiment: Thioredoxin/thioredoxin reductase insulin reduction assay; format: biochemical; details: for inhibition at 500 µM: compound at 500 μM, read-out: Inhib. (%) Trx Syst. at 500 μM
T1 sequence (Q16881 151-649 limits assumed): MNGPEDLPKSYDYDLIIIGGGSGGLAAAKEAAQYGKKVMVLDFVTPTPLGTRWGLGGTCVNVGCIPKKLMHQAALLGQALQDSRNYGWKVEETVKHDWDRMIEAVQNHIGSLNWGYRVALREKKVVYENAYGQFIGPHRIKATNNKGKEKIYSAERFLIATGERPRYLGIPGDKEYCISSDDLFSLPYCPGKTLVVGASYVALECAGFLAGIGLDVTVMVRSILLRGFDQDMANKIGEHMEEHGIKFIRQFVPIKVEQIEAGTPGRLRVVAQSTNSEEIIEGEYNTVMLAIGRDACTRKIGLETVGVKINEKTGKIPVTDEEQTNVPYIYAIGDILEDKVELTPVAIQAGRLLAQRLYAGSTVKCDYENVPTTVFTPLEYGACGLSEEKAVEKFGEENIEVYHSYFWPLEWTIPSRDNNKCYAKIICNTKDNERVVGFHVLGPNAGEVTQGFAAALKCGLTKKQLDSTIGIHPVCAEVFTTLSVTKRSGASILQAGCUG
Protocol: Thioredoxin/thioredoxin reductase inhibition was measured using the insulin reduction assay (Stevens, M. F. G., Pallis, M., Bradshaw, T. D., Westwell, A. D., Grundy, M., Russell, N, “Induction of apoptosis without redox catastrophe by thioredoxin-inhibitory compounds”, Biochem. Pharmacol. (2003) 66, 1695-1705). […] The first part of the assay involves TrxR reducing oxidized Trx via NADPH. The reduced Trx then reduces disulfide bonds in the insulin, leaving exposed thiol groups, as summarized by the Trx reaction scheme.
The addition of dithionitrobenzoic acid (DTNB) to the free thiol groups of the insulin cleaves the disulfide bond in the DTNB which gives rise to a yellow colour (DTNB reaction scheme). The yellow colour is observed under basic conditions due to the conjugation of electrons between the thiolate anion and the nitro group of thionitrobenzoic acid (TNB). The level of thioredoxin/thioredoxin reductase inhibitory activity is […] proportional to the intensity of the yellow colour.
Addition of DTNB to reduced insulin produces thionitrobenzoic acid (TNB) and a mixed insulin disulfide. DTNB has very little absorbance, but under mild basic conditions TNB forms an anion that gives an intense yellow colour at 412 nm.
Synthesized compounds were tested for thioredoxin/thioredoxin reductase activity using the thioredoxin/thioredoxin reductase insulin assay described above under the heading “Assays”. The compounds were also tested for antiproliferative activity using the MTT assay described above under the heading “Assays”. Theoretical C log P values for the compounds were calculated using ChemDraw. The C log P of a compound is the logarithm of the compound's partition coefficient between n-octanol and water log(coctanol/cwater) and represents a measure of the compound's hydrophilicity and hydrophobicity. […]

[2] = system: HPV-16 immortalized keratinocyte cell line (CCD-1106 KERTr); experiment: cells; format: cell-based; details: Homo sapiens;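 further: growth inhibition read as spectrophotometric formazan colour from mitochondrial dehydrogenase cleavage of MTT, proportional to viable cell number, modelling psoriatic hyperproliferation, lower values mean stronger antiproliferative activity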
Source text: The assay is based on the ability of a mitochondrial dehydrogenase enzyme to cleave the tetrazolium rings of the yellow MTT to form dark blue formazan crystals (MTT reaction scheme). These crystals are mostly impermeable to cell membranes and, consequently, they accumulate in healthy viable cells. The addition of detergent solubilizes the cells, which results in the liberation of purple formazan crystals. The number of viable cells is directly proportional to the level of purple formazan produced. This colour change can be measured by a spectrophotometer enabling quantification of changes in cellular proliferation. Compound activity measured by the MTT assay (or other proliferation related assay) may be given as a GI50 value.
A human papilloma virus-16 (HPV-16) immortalized keratinocyte cell line (CCD-1106 KERTr) was used in the MTT cell viability assay.
Antiproliferative activity is indicated by the MTT GI50 (μM), where a lower value indicates higher activity.

[3] = insulin reduction assay, read-out: Trx System IC50
[4] = CCD-1106 KERTr keratinocytes, read-out: MTT GI50

SMILES	inhibition at 500 µM [1]	IC50 [1, 3]	GI50 [2, 4]	IC50 ([2]; CCD-1106, read-out: IC50 in MTT assay (antiproliferative activity))	IC50 [1]	GI50 ([2]; CCD-1106, read-out: MTT GI50 (μM))
Cc1ccc(S(=O)(=O)Nc2ccc(NC(=O)Cn3ccc(=O)[nH]c3=O)cc2NS(=O)(=O)c2ccc(C)cc2)cc1 [(42), N-[3,4-bis-(toluene-4-sulfonylamino)phenyl]-2-(2,4-dioxo-3,4-dihydro-2H-pyrimidin-1-yl)acetamide]	70.7%	339 µM	100 µM	–	–	–
CCOC(=O)CN(CC(=O)OCC)Cc1ccc(NS(=O)(=O)c2ccc(C)cc2)c(NS(=O)(=O)c2ccc(C)cc2)c1 [(32), ethyl {[3,4-bis-(toluene-4-sulfonylamino)benzyl]-ethoxycarbonylmethyl-amino}acetate]	58.1%	–	9 µM	–	–	–
COC(=O)c1ccc(NS(=O)(=O)c2ccc(C(F)(F)F)cc2)c(NS(=O)(=O)c2ccc(C(F)(F)F)cc2)c1 [(19b), methyl 3,4-bis-(4-trifluoromethylbenzenesulfonylamino)benzoate]	33.4%	429 µM	5.4 µM	–	–	–
Cc1ccc(S(=O)(=O)Nc2ccc(C#N)cc2NS(=O)(=O)c2ccc(C)cc2)cc1 [(21b), 3,4-bis-(toluene-4-sulfonylamino)benzonitrile]	58.4%	–	4.7 µM	–	–	–
CCNC(=O)Nc1ccc(NS(=O)(=O)c2ccc(C)cc2)c(NS(=O)(=O)c2ccc(C)cc2)c1 [(33d), ethyl [3,4-bis(toluene-4-sulfonylamino)]phenyl urea]	88.3%	–	55.9 µM	–	–	–
COC(=O)c1ccc(NS(=O)(=O)c2ccc(OC)cc2)c(NS(=O)(=O)c2ccc(OC)cc2)c1 [(19d), methyl 3,4-bis-(4-methoxybenzenesulfonylamino)benzoate]	14.6%	–	5.2 µM	–	–	–
COC(=O)c1ccc(NS(=O)(=O)c2ccc(C)cc2)c(NS(=O)(=O)c2ccc(C)cc2)c1 [(12), methyl 3,4-diamino-N,N-bis-(toluene-4-sulfonylamino)benzoate]	30%	1360 µM	4.1 µM	–	–	–
Cc1ccc(S(=O)(=O)Nc2ccc(C(N)=O)cc2NS(=O)(=O)c2ccc(C)cc2)cc1 [(29), 3,4-bis-(toluene-4-sulfonylamino)benzamide]	19.9%	–	104 µM	–	–	–
COC(=O)c1ccc(NS(=O)(=O)c2ccc(OC(F)(F)F)cc2)c(NS(=O)(=O)c2ccc(OC(F)(F)F)cc2)c1 [(19c), methyl 3,4-bis-(4-trifluoromethoxybenzenesulfonylamino)benzoate]	43.7%	546 µM	2.2 µM	–	–	–
COC(=O)c1ccc(NS(=O)(=O)c2ccc(Cl)s2)c(NS(=O)(=O)c2ccc(Cl)s2)c1 [(25), methyl 3,4-bis-(5-chloro-thiophene-2-sulfonylamino)benzoate]	61%	–	1.2 µM	–	–	–
Cc1ccc(S(=O)(=O)Nc2ccc(CN)cc2NS(=O)(=O)c2ccc(C)cc2)cc1 [(30), 3,4-bis(toluene-4-sulfonylamino)benzyl amine]	98.7%	377 µM	162 µM	–	–	–
O=C(Nc1ccc(NS(=O)(=O)c2ccc(F)cc2)c(NS(=O)(=O)c2ccc(F)cc2)c1)c1ccco1 [Compound (103)]	–	–	–	36.2 µM	–	–
Cc1ccc(S(=O)(=O)Nc2ccc(N)cc2NS(=O)(=O)c2ccc(C)cc2)cc1 [(33b), 3,4-bis(toluene-4-sulfonylamino)phenyl amine]	31.6%	–	48.9 µM	–	–	–
Cc1ccc(S(=O)(=O)Nc2ccc(C=O)cc2NS(=O)(=O)c2ccc(C)cc2)cc1 [(37), 3,4-bis-(toluene-4-sulfonylamino)benzaldehyde]	81%	374 µM	12 µM	–	–	–
Cc1ccc(S(=O)(=O)Nc2ccc(CO)cc2NS(=O)(=O)c2ccc(C)cc2)cc1 [(36), (3,4-bis-(toluene-4-sulfonylamino)phenyl)methanol]	50%	–	19.1 µM	–	–	–
Cc1ccc(S(=O)(=O)Nc2ccc(C(=N)NO)cc2NS(=O)(=O)c2ccc(C)cc2)cc1 [(21c), N-hydroxy-3,4-bis-(toluene-4-sulfonylamino)benzamidine]	32.4%	–	108 µM	–	–	–
CC(C)=CCN(CC=C(C)C)Cc1ccc(NS(=O)(=O)c2ccc(C)cc2)c(NS(=O)(=O)c2ccc(C)cc2)c1 [(31), [3,4-bis-(toluene-4-sulfonylamino)benzyl]bis-(3-methyl-but-2-enyl)amine]	70%	–	7.9 µM	–	–	–
COC(=O)c1ccc(NS(=O)(=O)c2ccc([N+](=O)[O-])cc2)c(NS(=O)(=O)c2ccc([N+](=O)[O-])cc2)c1 [(19a), methyl 3,4-bis-(4-nitrobenzenesulfonylamino)benzoate]	53.3%	–	–	–	475 µM	11.2 µM
Cc1ccc(S(=O)(=O)Nc2ccc(-c3noc(C(C)C)n3)cc2NS(=O)(=O)c2ccc(C)cc2)cc1 [(21d), 1-(5′-isopropyl-1′,2′,4′-oxadiazol-3-yl)-3,4-bis-(toluene-4-sulfonylamino)benzene]	13.9%	–	3.2 µM	–	–	–
Cc1ccc(S(=O)(=O)Nc2ccc(NC(=O)c3cccs3)cc2NS(=O)(=O)c2ccc(C)cc2)cc1 [(55), N-(3,4-bis-(toluene-4-sulfonylamino)phenyl)-2-thiophenecarboxamide]	61.5%	494 µM	3.3 µM	–	–	–
Cc1ccc(S(=O)(=O)Nc2ccc(NS(N)(=O)=O)cc2NS(=O)(=O)c2ccc(C)cc2)cc1 [(33c), 3,4-bis(toluene-4-sulfonylamino)phenylsulfamide]	38.6%	–	114 µM	–	–	–
Cc1ccc(S(=O)(=O)Nc2ccc(C(=O)O)cc2NS(=O)(=O)c2ccc(C)cc2)cc1 [(35), 3,4-bis-(toluene-4-sulfonylamino)benzoic acid]	20%	–	67.3 µM	–	–	–
C=CC(=O)Nc1ccc(NS(=O)(=O)c2ccc(C)cc2)c(NS(=O)(=O)c2ccc(C)cc2)c1 [(39), N-[3,4-bis-(toluene-4-sulfonylamino)-phenyl]acrylamide]	73.9%	156 µM	18.8 µM	–	–	–
Cc1ccc(S(=O)(=O)Nc2ccc(NC(=O)Nc3ccccc3)cc2NS(=O)(=O)c2ccc(C)cc2)cc1 [(33e), phenyl [3,4-bis(toluene-4-sulfonylamino)]phenyl urea]	0%	–	6.2 µM	–	–	–
COC(=O)c1ccc(NS(=O)(=O)c2ccc(N)cc2)c(NS(=O)(=O)c2ccc(N)cc2)c1 [(19e), methyl 3,4-bis-(4-aminobenzenesulfonylamino)benzoate]	86.7%	386 µM	> 420 µM	–	–	–
Cc1ccc(S(=O)(=O)Nc2ccc(-c3ccc(F)c(C#N)c3)cc2NS(=O)(=O)c2ccc(C)cc2)cc1 [(53), 3′,4′-bis-(toluene-4-sulfonylamino)-4-fluorobiphenyl-3-carbonitrile]	71.1%	106 µM	0.156 µM	–	–	–
Cc1ccc(S(=O)(=O)Nc2ccc(C(=O)NC(C)(C)C)cc2NS(=O)(=O)c2ccc(C)cc2)cc1 [(28), N-tert-butyl-3,4-bis-(toluene-4-sulfonylamino)benzamide]	10%	–	5.1 µM	–	–	–
COC(=O)c1ccc(NS(=O)(=O)c2ccc(Cl)cc2)c(NS(=O)(=O)c2ccc(Cl)cc2)c1 [(27), methyl 3,4-bis-(4-chlorobenzenesulfonylamino)benzoate]	62.3%	277 µM	0.64 µM	–	–	–
